These results are taken from article PMC8521653 (ACS Medicinal Chemistry Letters, 2021).

Peptide text beside a SMILES is read from it. * marks the point of attachment. Cbz = O=C(OCc1ccccc1)*

Experiment [1] addresses T1, purified recombinant porcine PREP (Sus scrofa, UniProt P23687).
T1 construct: made in house; host or cells: E. coli
In words: Inhibition of the proteolytic activity of PREP, microplate assay with Suc-Gly-Pro-AMC substrate. In kind it is biochemical. The settings on record: for PREP activity at 1 nM inhibitor concentration compared to control: remaining activity; for IC50: recombinant porcine PREP, Suc-Gly-Pro-AMC, 30 °C, pH 7.0, 95% CI in brackets. The protocol: Inhibition of the proteolytic activity (IC50) of PREP was determined using purified recombinant porcine PREP[25] as previously described.[16]
Measuring biological activity
Inhibitory Activity. The IC 50 values for compounds were determined in the microplate assay procedure described in Kilpeläinen et al.1 Porcine PREP cDNA was expressed in E.coli cells and purified as described in Venäläinen et al.3 The enzyme dilution was preincubated with 0.1 M sodium–potassium phosphate buffer (75 µL, pH 7.0) containing the compounds at desired concentrations in 30 °C for 30 min. The final concentration of the compounds in the assay mixture varied from 1 mM-1 nM and the final concentration of the enzyme was approximately 0.1 nM as measured by Bradford´s method. The enzyme reaction was carried out by adding 25 µL of 4 mM Suc-Gly-Pro-AMC substrate dissolved in 0.1 M sodium–potassium phosphate buffer (pH 7.0) into the assay mixture and incubating at 30° C for 60 min. The reaction was terminated by adding […] of 1 M sodium acetate buffer (pH 4.2). Formation of AMC was measured with Victor2 multilabel counter (PerkinElmer; excitation/emission 360 nm/ 460 nm), with a standard curve of 0.1-5 nM AMC in 0.1 M sodium–potassium phosphate buffer present. All activity measurements were made at least in triplicate. The inhibitory activities (percent of control) were plotted against the log concentration of the compound, and the IC50-value was determined by non-linear regression utilizing GraphPad Prism 7.0 software. […]

The subject of experiment [2] is PREP-catalyzed α-synuclein dimerization in N2A cells. In words: αSyn dimerization, protein fragment complementation assay (PCA) in N2A cells. Format: cell-based. The settings on record: for activity at 10 µM: Mus musculus, luminescence signal percentage of DMSO control with SEM, N2A cells; for increase of aSyn dimerization compared to DMSO control: 10 µM proteasome inhibitor, positive control, % increase. The protocol:
The effect of the compounds on autophagy was determined by using GFP-LC3B-RFP expressing HEK-293 cells.[15],[34] The effect on αSyn dimerization was evaluated with a protein fragment complementation assay (PCA) by using N2A cells.[10],[15],[16] The increase in autophagic flux was measured as a decrease in GFP signal due to increased degradation of GFP-LC3B, and the decrease in αSyn dimerization was measured as a decrease in luminescence, both compared with DMSO (Table 1). […] Rapamycin and starvation are known to induce autophagy, lowering the fluorescence to 65–70% in our assays, and were therefore used as reference compounds for this. Test compounds were assayed at 10 μM concentration with 0.1% DMSO. A graphical representation of the mean values (± SEM) can be seen in the Supporting Information (Figure S1).
Measuring biological activity […]
α-Synuclein Dimerization. αSyn dimerization was assessed by using PCA, which was carried out as described previously in Kilpeläinen et al.1 In short, N2A cells were seeded on poly-L-lysine-coated 96-well plates (Isoplate™ white wall, PerkinElmer Life Sciences) at the density of 13 000 cells/well. 24 h post-plating, reporter plasmids were transfected with 100 ng of total plasmid DNA per well. N2A cells were transfected with 25 ng of both αSyn-Gluc1 and αSyn-Gluc2 and 50 ng mock-plasmid or non-tagged human PREP expression plasmid 50 ng/well. Lipofectamine 3000 (Thermo Fischer Scientific) was used as the transfection reagent. 100 µL normal growth medium was added to all wells at 24 h post-transfection. 48 hours post-transfection medium was changed to phenol red free DMEM without serum containing the tested compounds at 10 µM concentration, with 0,1% DMSO as vehicle control. Proteasome inhibitors lactacystin (AG Scientific) at 10 µM and MG-132 (Enzo Life Sciences) at 10 µM served as a positive control. The PCA signal was assessed by injecting 25 µL of native coelenterazine (Nanolight Technology) in phenol red free DMEM per well (final concentration 6 µM). The emitted luminescence was read using Varioskan LUX multimode microplate reader (Thermo Scientific). For each experimental condition, 4 replicate wells were used in each experiment, and at least 3 separate experiments for each treatment except for 15c which had 2 separate experiments. […]

Experiment [3] deals with GFP-LC3B-RFP expressing HEK-293 cells. Briefly: Autophagic flux, GFP signal in GFP-LC3B-RFP expressing HEK-293 cells. The settings on record: for effect on autophagy (in words) / activity at 10 µM: 10 μM; for activity at 10 µM: Homo sapiens, HEK293, 24 h, GFP signal percentage of DMSO control with SEM, HEK-293 cells, read-out: autophagy at 10 μM (%). In kind it is cell-based.

T1 sequence (P23687 whole entry): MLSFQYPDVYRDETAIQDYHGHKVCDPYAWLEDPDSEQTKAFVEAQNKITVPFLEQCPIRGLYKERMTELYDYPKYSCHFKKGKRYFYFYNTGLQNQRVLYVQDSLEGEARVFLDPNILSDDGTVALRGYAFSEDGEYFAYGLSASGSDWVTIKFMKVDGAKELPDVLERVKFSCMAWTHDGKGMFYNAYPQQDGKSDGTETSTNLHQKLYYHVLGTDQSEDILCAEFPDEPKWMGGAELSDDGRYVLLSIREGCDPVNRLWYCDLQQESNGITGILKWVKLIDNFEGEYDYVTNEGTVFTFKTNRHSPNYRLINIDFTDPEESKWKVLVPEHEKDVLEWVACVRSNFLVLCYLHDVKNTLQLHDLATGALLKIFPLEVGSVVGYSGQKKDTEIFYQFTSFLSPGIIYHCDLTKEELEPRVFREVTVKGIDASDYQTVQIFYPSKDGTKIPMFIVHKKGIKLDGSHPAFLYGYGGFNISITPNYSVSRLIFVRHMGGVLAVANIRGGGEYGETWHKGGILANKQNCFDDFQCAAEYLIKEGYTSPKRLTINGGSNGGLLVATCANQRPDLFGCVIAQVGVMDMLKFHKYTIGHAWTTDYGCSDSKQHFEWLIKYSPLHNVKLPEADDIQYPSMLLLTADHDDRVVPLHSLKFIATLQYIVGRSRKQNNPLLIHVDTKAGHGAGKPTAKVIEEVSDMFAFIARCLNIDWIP

On to `O=C(c1ncc[nH]1)[C@@H]1CCCN1C(=O)[C@@H]1CCCN1C(=O)CCCc1ccccc1` [Compound 2a, reference compound], for which, in experiment [1], the “PREP activity at 1 nM inhibitor concentration compared to control” value amounted to 43% and the concentration for half-maximal inhibition (IC50) is < 1 nM. Besides, in experiment [2] (10 μM), the “effect on αSyn dimerization (in words)” value is recorded as “lack of activity” and the activity at 10 µM turned out to be 99%. In experiment [3], the “effect on autophagy (in words)” value was “lack of activity” and the activity at 10 µM is 95%.
Consider `O=C(CCc1ccccc1)N1CCC[C@H]1C(=O)N1CCC[C@H]1c1nnn[nH]1` [Compound 15a], for which the IC50 in experiment [1] was determined as 1000 nM. The results for the activity at 10 µM in experiment [2] (10 μM) and in experiment [3] were 116% and 96%, respectively.
In the case of `C[C@H](NC(=O)CCc1ccccc1)C(=O)N1CCC[C@H]1c1nnn[nH]1` [Compound 15b], in experiment [1], the concentration for half-maximal inhibition (IC50) amounted to 3900 nM. Further, the activity at 10 µM was 98% in experiment [2] (10 μM) and 90% in experiment [3].
As to `CN(CC(=O)N1CCC[C@H]1c1nnn[nH]1)C(=O)CCc1ccccc1` [Compound 15c], the activity at 10 µM in experiment [2] (10 μM) and in experiment [3] was 95% throughout.
Take `O=C(CCCCc1ccccc1)N1CCC[C@H]1C(=O)N1CCC[C@H]1c1nnn[nH]1` [Compound 16a]: in experiment [1], the half-maximal inhibitory concentration (IC50) was determined as 770 nM. Besides, the activity at 10 µM in experiment [2] (10 μM) was found to be 102%; in experiment [3] it was 98%.
Turning to `C[C@H](NC(=O)CCCCc1ccccc1)C(=O)N1CCC[C@H]1c1nnn[nH]1` [Compound 16b], the IC50 in experiment [1] was 5000 nM. Besides, the activity at 10 µM in experiment [2] (10 μM) was determined as 92%; in experiment [3] it was 94%.
On to `O=C(CCCc1cccs1)N1CCC[C@H]1C(=O)N1CCC[C@H]1c1nnn[nH]1` [Compound 17a], for which the IC50 in experiment [1] came out at 94 nM. In experiment [2] (10 μM), the “effect on αSyn dimerization (in words)” value was “maintained some activity on αSyn dimerization” and the activity at 10 µM worked out at 87%. In experiment [3], the “effect on autophagy (in words)” value is given as “slightly improved the activity in inducing autophagy” and the activity at 10 µM came out at 87%.
In the case of `C[C@H](NC(=O)CCCc1cccs1)C(=O)N1CCC[C@H]1c1nnn[nH]1` [Compound 17b], the IC50 in experiment [1] came to 1100 nM. In addition, in experiment [2] (10 μM), the “effect on αSyn dimerization (in words)” value was “inactive for both functions” and the activity at 10 µM is 93%. In experiment [3], the “effect on autophagy (in words)” value was “inactive for both functions” and the activity at 10 µM turned out to be 92%.
For the compound `Cn1nnnc1[C@@H]1CCCN1C(=O)[C@@H]1CCCN1C(=O)CCCc1ccccc1` [Compound 18a], in experiment [1], the 50% inhibitory concentration (IC50) stood at 520000 nM. Further, in experiment [2] (10 μM), the “effect on αSyn dimerization (in words)” value is reported as “lost the activity on αSyn dimerization” and the activity at 10 µM came out at 105%. For the same compound, in experiment [3], the “effect on autophagy (in words)” value is recorded as “capable of inducing autophagy” and the activity at 10 µM came out at 88%.
On to `Cn1nnc([C@@H]2CCCN2C(=O)[C@@H]2CCCN2C(=O)CCCc2ccccc2)n1` [Compound 19a], for which, in experiment [2] (10 μM), the “effect on αSyn dimerization (in words)” value is on record as “lost the activity on αSyn dimerization” and the activity at 10 µM turned out to be 101%. In experiment [3], the “effect on autophagy (in words)” value is listed as “capable of inducing autophagy” and the activity at 10 µM was 85%.
`O=C(CCCc1ccccc1)N1CCC[C@H]1C(=O)N1CCC[C@H]1c1nnc[nH]1` [Compound 20a]: in experiment [2] (10 μM), the “effect on αSyn dimerization (in words)” value is recorded as “no activity on αSyn dimerization” and the activity at 10 µM was determined as 96%. Further, in experiment [3], the “effect on autophagy (in words)” value is given as “some minor activity in modulating autophagy” and the activity at 10 µM worked out at 87%.
Consider `C[C@H](NC(=O)CCCc1ccccc1)C(=O)N1CCC[C@H]1c1nnc[nH]1` [Compound 20b], for which the values for the activity at 10 µM in experiment [2] (10 μM) and in experiment [3] were 110% and 91%, respectively.
Turning to `O=C(CCCc1ccccc1)N1CCC[C@H]1C(=O)N1CCC[C@H]1c1cnn[nH]1` [Compound 25a], in experiment [1], the IC50 stood at 1100 nM. In addition, the activity at 10 µM in experiment [2] (10 μM) stood at 104%; in experiment [3], 93%.
On to `O=C(CCc1ccccc1)N1CCC[C@H]1C(=O)N1CCC[C@H]1c1ncc[nH]1` [Compound 26a], for which, in experiment [1], the “PREP activity at 1 nM inhibitor concentration compared to control” value stood at 41% and the 50% inhibitory concentration (IC50) was < 1 nM. For the same compound, in experiment [2] (10 μM), the “effect on αSyn dimerization (in words)” value is given as “still retaining some modulating activity” and the activity at 10 µM was found to be 89%. The activity at 10 µM in experiment [3] amounted to 102%.
For the compound `O=C(CCCc1ccccc1)N1CCC[C@H]1C(=O)N1CCC[C@H]1c1ncc[nH]1` [Compound 27a], in experiment [1], the “PREP activity at 1 nM inhibitor concentration compared to control” value came to 25% and the concentration for half-maximal inhibition (IC50) is < 1 nM. The “decrease of aSyn dimerization compared to DMSO control” value in experiment [2] (10 μM, PCA, Figure S1A, % decrease) was found to be 28%. In experiment [2] (10 μM), the activity at 10 µM turned out to be 72%. For the same compound, in experiment [3], the “effect on autophagy (in words)” value is reported as “no effect on autophagy” and the activity at 10 µM came to 96%.
Consider `C[C@H](NC(=O)CCCc1ccccc1)C(=O)N1CCC[C@H]1c1ncc[nH]1` [Compound 27b], for which the IC50 in experiment [1] was 2100 nM. Further, in experiment [2] (10 μM), the “effect on αSyn dimerization (in words)” value is given as “did not retain either of the activities” and the activity at 10 µM is 110%. Further, in experiment [3], the “effect on autophagy (in words)” value is “did not retain either of the activities” and the activity at 10 µM was 106%.
For `O=C(CCCCc1ccccc1)N1CCC[C@H]1C(=O)N1CCC[C@H]1c1ncc[nH]1` [Compound 28a], the “PREP activity at 1 nM inhibitor concentration compared to control” value in experiment [1] was determined as 20%. Besides, the concentration for half-maximal inhibition (IC50) in experiment [1] was < 1 nM. The results for the activity at 10 µM in experiment [2] (10 μM) and in experiment [3] were 110% and 102%, respectively.
As for `O=C(CCCc1ccccc1)N1CCC[C@H]1C(=O)N1CCC[C@H]1c1cnc[nH]1` [Compound 29a], the half-inhibitory concentration (IC50) in experiment [1] was 44 nM. In experiment [2] (10 μM), the “effect on αSyn dimerization (in words)” value is reported as “no activity on αSyn dimerization” and the activity at 10 µM amounted to 98%. In experiment [3], the “effect on autophagy (in words)” value is on record as “some minor activity in modulating autophagy” and the activity at 10 µM came out at 92%.
As to `CC(C)C[C@@H](C=O)NC(=O)[C@H](CC(C)C)NC(=O)[C@H](CC(C)C)NC(=O)OCc1ccccc1` [MG-132, reference compound] (Cbz-Leu-Leu-Leu-aldehyde), the “increase of aSyn dimerization compared to DMSO control” value in experiment [2] (PCA) is reported as 29%.
In the case of `CO/C1=C\C(C)=C\[C@@H](C)[C@@H](O)[C@@H](C)C/C(C)=C/C=C/[C@H](OC)[C@@H]([C@@H](C)[C@@H](O)[C@H](C)[C@@]2(O)C[C@@H](O)[C@H](C)[C@@H](C(C)C)O2)OC1=O` [bafilomycin A1, reference compound], in experiment [3] (20 nM, autophagy inhibitor control, % increase), the “increase in autophagic flux assay GFP signal compared to DMSO control” value was determined as 40%.
`CC(=O)N[C@@H](CSC(=O)[C@]1([C@@H](O)C(C)C)NC(=O)[C@H](C)[C@@H]1O)C(=O)O` [lactacystin, reference compound]: the “increase of aSyn dimerization compared to DMSO control” value in experiment [2] (PCA) turned out to be 32%.
For the compound `CO[C@H]1C[C@@H]2CC[C@@H](C)[C@@](O)(O2)C(=O)C(=O)N2CCCC[C@H]2C(=O)O[C@H]([C@H](C)C[C@@H]2CC[C@@H](O)[C@H](OC)C2)CC(=O)[C@H](C)/C=C(\C)[C@@H](O)[C@@H](OC)C(=O)[C@H](C)C[C@H](C)/C=C/C=C/C=C/1C` [rapamycin, reference compound], the “decrease in autophagic flux assay GFP signal compared to DMSO control” value in experiment [3] (0.5 µM, positive control, % decrease) was 34%. Also, the “fluorescence (GFP signal) relative to DMSO control” value in experiment [3] (reference for autophagy induction, in our assays) is reported as 65–70%.

By IC50 is commonly meant the point on the concentration scale where inhibition reaches its midpoint.
